B1: DSR2: synthetic double-stranded RNA, 119 mer, SEQ ID NO. 6, made by in vitro transcription and annealing (nucleic acid, listed as Tetragenococcus halophilus)
chain: AAAAAATTACCTTTTTCTATTCGTGAGAAAATTTCTCAAGCCGACAAGTATCATAAAAAATTTGCTTTTGAACACTTTTTGAAGGTGTTTCTCTATGGCATCGATCATGAGTGTGAAAG
modifications: RNA, all phosphodiester, T or U not given here; further chemistry not fully specified
notes: 6, made by in vitro transcription and annealing

System: bone marrow-derived dendritic cells
Experiment: Promotion of interferon β production from bone marrow-derived dendritic cells (PBL interferon β assay kit)
Assay type: cell-based, mouse
Method: In addition, measurement was also carried out on interferon β, which has been reported to be involved in the production of interleukin 12. Activity promoting production of interferon β from bone marrow-derived dendritic cells (after culturing for 6 hours using an interferon β assay kit (PBL)) was as shown in FIG. 8.
At this time, interferon […], which has been reported to be involved in interleukin 12 production, was also measured.
Bone marrow-derived dendritic cells were prepared in the same manner as Example 2. Synthetic RNA was added to the bone marrow-derived dendritic cells followed by co-culturing for 6 hours in a 5% CO2 incubator at 37° C. Interferon β production promoting activity was measured using an interferon β assay kit manufactured by PBL.
Bone marrow-derived dendritic cells were prepared in the same manner as Example 2. Synthetic RNA was added to the bone marrow-derived dendritic cells followed by co-culturing for 24 hours in a 5% CO2 incubator at 37° C. Interferon β production promoting activity was measured using the interferon β assay kit manufactured by PBL.

Row | Molecule | interferon β production promoting activity (culturing for 6 hours, concentration response) | interferon β production promoting activity (dendritic cells from TLR3-knockout mice vs wild type, 6 hours) | interferon β production from bone marrow-derived dendritic cells (co-culturing for 24 hours)
1 | DSR1: synthetic double-stranded RNA, 46 mer, SEQ ID NO. 5, sequence cloned from Th221 double-stranded RNA fraction (AAATTTTCAAAAACCTGTTTTGCTTCTTCTAAAAATCCAATTGAAA; listed as DNA, chemistry not given here; listed as Tetragenococcus halophilus) | increased dependent on the concentration | decreased | 
2 | B1 |  |  | indicated to be produced
